In patent US7888347B2, “Pyrazolo [3,4-D]azepine derivatives as histamine H3 antagonists” (Glaxo Group Limited, priority 2005, dated 2011):

Molecular target: T1, histamine H3 receptor (Homo sapiens, UniProt Q9Y5N1)
T1 construct: expressed in transfected cells; host or cells: CHO K1 cells (pSwitch/pGene GeneSwitch system, mifepristone-induced), clone 3H3; membrane preparation
Assay: Histamine H3 functional antagonist assay ([35S]-GTPγS SPA on membranes)
Format: biochemical
Conditions: hydrochloride salts tested; membrane prepared from cultured H3 cells; averages of a number of experiments; read-out: functional pKi (fpKi), histamine H3 functional antagonism (converted)
From the text: A membrane preparation containing histamine H3 receptors may be prepared in accordance with the following procedures:
(i) Generation of Histamine H3 Cell Line
DNA encoding the human histamine H3 gene (Huvar, A. et al. (1999) Mol. Pharmacol. 55(6), 1101-1107) was cloned into a holding vector, pCDNA3.1 TOPO (InVitrogen) and its cDNA was isolated from this vector by restriction digestion of plasmid DNA with the enzymes BamH1 and Not-1 and ligated into the inducible expression vector pGene (InVitrogen) digested with the same enzymes. The GeneSwitch™ system (a system where in transgene expression is switched off in the absence of an inducer and switched on in the presence of an inducer) was performed as described in U.S. Pat. Nos. 5,364,791; 5,874,534; and 5,935,934. Ligated DNA was transformed into competent DH5α E. coli host bacterial cells and plated onto Luria Broth (LB) agar containing Zeocin™ (an antibiotic which allows the selection of cells expressing the sh ble gene which is present on pGene and pSwitch) at 50 μg ml^−1. Colonies containing the re-ligated plasmid were identified by restriction analysis. DNA for transfection into mammalian cells was prepared from 250 ml cultures of the host bacterium containing the pGeneH3 plasmid and isolated using a DNA preparation kit (Qiagen Midi-Prep) as per manufacturers guidelines (Qiagen).
CHO K1 cells previously transfected with the pSwitch regulatory plasmid (InVitrogen) were seeded at 2×10e6 cells per T75 flask in Complete Medium, containing Hams F12 (GIBCOBRL, Life Technologies) medium supplemented with 10% v/v dialysed foetal bovine serum, L-glutamine, and hygromycin (100 μg ml^−1), 24 hours prior to use. Plasmid DNA was transfected into the cells using Lipofectamine plus according to the manufacturers guidelines (InVitrogen). 48 hours post transfection cells were placed into complete medium supplemented with 500 μg ml^−1 Zeocin™.
10-14 days post selection 10 nM Mifepristone (InVitrogen), was added to the culture medium to induce the expression of the receptor. 18 hours post induction cells were detached from the flask using ethylenediamine tetra-acetic acid (EDTA; 1:5000; InVitrogen), following several washes with phosphate buffered saline pH 7.4 and resuspended in Sorting Medium containing Minimum Essential Medium (MEM), without phenol red, and supplemented with Earles salts and 3% Foetal Clone II (Hyclone). Approximately 1×10e7 cells were examined for receptor expression by staining with a rabbit polyclonal antibody, 4a, raised against the N-terminal domain of the histamine H3 receptor, incubated on ice for 60 minutes, followed by two washes in sorting medium. Receptor bound antibody was detected by incubation of the cells for 60 minutes on ice with a goat anti rabbit antibody, conjugated with Alexa 488 fluorescence marker (Molecular Probes). Following two further washes with Sorting Medium, cells were filtered through a 50 μm Filcon™ (BD Biosciences) and then analysed on a FACS Vantage SE Flow Cytometer fitted with an Automatic Cell Deposition Unit. Control cells were non-induced cells treated in a similar manner. Positively stained cells were sorted as single cells into 96-well plates, containing Complete Medium containing 500 μg ml^−1 Zeocin™ and allowed to expand before reanalysis for receptor expression via antibody and ligand binding studies. One clone, 3H3, was selected for membrane preparation.
(ii) Membrane Preparation from Cultured Cells
All steps of the protocol are carried out at 4° C. and with pre-cooled reagents. The cell pellet is resuspended in 10 volumes of homogenisation buffer (50 mM N-2-hydroxyethylpiperazine-N′-2-ethanesulfonic acid (HEPES), 1 mM ethylenediamine tetra-acetic acid (EDTA), pH 7.4 with KOH), supplemented with 10e-4M leupeptin (acetyl-leucyl-leucyl-arginal; Sigma L2884), 25 μg/ml bacitracin (Sigma B0125), 1 mM phenylmethylsulfonyl fluoride (PMSF) and 2×10e-6M pepstatin A (Sigma). […]

T1 sequence (Q9Y5N1 whole entry): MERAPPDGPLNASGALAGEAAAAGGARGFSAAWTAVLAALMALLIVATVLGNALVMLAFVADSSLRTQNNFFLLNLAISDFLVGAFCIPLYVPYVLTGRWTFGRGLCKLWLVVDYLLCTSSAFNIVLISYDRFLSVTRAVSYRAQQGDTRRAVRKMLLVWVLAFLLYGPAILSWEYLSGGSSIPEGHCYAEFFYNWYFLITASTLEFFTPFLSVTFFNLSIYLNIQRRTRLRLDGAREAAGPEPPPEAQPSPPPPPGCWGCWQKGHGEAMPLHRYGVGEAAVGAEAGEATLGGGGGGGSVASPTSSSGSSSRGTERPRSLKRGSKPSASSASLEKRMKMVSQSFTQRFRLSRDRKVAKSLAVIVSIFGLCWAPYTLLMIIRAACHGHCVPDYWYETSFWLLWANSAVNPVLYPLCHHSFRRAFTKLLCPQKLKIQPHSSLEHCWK

SMILES | Ki [nM]
CC(C)N1CCc2cn(-c3ccc(N4CCOC4=O)cc3)nc2CC1 [Example E9, 3-{4-[6-(1-Methylethyl)-5,6,7,8-tetrahydropyrazolo[3,4-d]azepin-2(4H)-yl]phenyl}-1,3-oxazolidin-2-one] | < 1
CC(C)N1CCc2cn(-c3ccc(N4CCN(C)C4=O)cc3)nc2CC1 [Example E10, 1-Methyl-3-{4-[6-(1-methylethyl)-5,6,7,8-tetrahydropyrazolo[3,4-d]azepin-2(4H)-yl]phenyl}-2-imidazolidinone] | < 1
O=C1CCCN1c1ccc(-n2cc3c(n2)CCN(C2CCC2)CC3)cn1 [Example E12, 1-[5-(6-Cyclobutyl-5,6,7,8-tetrahydropyrazolo[3,4-d]azepin-2(4H)-y)-2-pyridinyl]-2-pyrrolidinone] | < 1
O=C1CCCN1c1ccc(-n2cc3c(n2)CCN(C2CCC2)CC3)cc1 [Example E13] | < 0.316
CC(C)N1CCc2cn(-c3ccc(N4CCCC4=O)cc3)nc2CC1 [Example E14, 1-{4-[6-(1-Methylethyl)-5,6,7,8-tetrahydropyrazolo[3,4-d]azepin-2(4H)-yl]phenyl}-2-pyrrolidinone] | < 1
Cc1noc(-c2ccc(-n3cc4c(n3)CCN(C(C)C)CC4)cc2)n1 [Example E15, 6-(1-Methylethyl)-2-[4-(3-methyl-1,2,4-oxadiazol-5-yl)phenyl]-2,4,5,6,7,8-hexahydropyrazolo[3,4-d]azepine] | < 1
CCN1CCc2cn(-c3ccc(N4CCCC4=O)cc3)nc2CC1 [Example E18, 1-[4-(6-Ethyl-5,6,7,8-tetrahydropyrazolo[3,4-d]azepin-2(4H)-yl)phenyl]-2-pyrrolidinone] | < 0.316
CC(C)CN1CCc2cn(-c3ccc(N4CCCC4=O)cc3)nc2CC1 [Example E20] | < 1
O=C1CCCN1c1ccc(-n2cc3c(n2)CCN(C2CCCC2)CC3)cc1 [Example E24, 1-[4-(6-Cyclopentyl-5,6,7,8-tetrahydropyrazolo[3,4-d]azepin-2(4H)-yl)phenyl]-2-pyrrolidinone] | < 1
Cc1noc(-c2ccc(-n3cc4c(n3)CCN(C3CCC3)CC4)cc2)n1 [Example E25, 6-Cyclobutyl-2-[4-(3-methyl-1,2,4-oxadiazol-5-yl)phenyl]-2,4,5,6,7,8-hexahydropyrazolo[3,4-d]azepine] | < 1
Cc1noc(-c2ccc(-n3cc4c(n3)CCN(C3CCCC3)CC4)cc2)n1 [Example E27, 6-Cyclopentyl-2-[4-(3-methyl-1,2,4-oxadiazol-5-yl)phenyl]-2,4,5,6,7,8-hexahydropyrazolo[3,4-d]azepine] | < 1
O=C1OCCN1c1ccc(-n2cc3c(n2)CCN(C2CCCC2)CC3)cc1 [Example E30] | < 1

Second part, the molecule after the results:

Ki [nM] | SMILES
< 1 | CN1CCN(c2ccc(-n3cc4c(n3)CCN(C3CCCC3)CC4)cc2)C1=O [Example E31]
< 0.316 | CN1CCN(c2ccc(-n3cc4c(n3)CCN(C3CCC3)CC4)cc2)C1=O [Example E36]
< 0.316 | O=C1OCCN1c1ccc(-n2cc3c(n2)CCN(C2CCC2)CC3)cc1 [Example E37, 3-[4-(6-Cyclobutyl-5,6,7,8-tetrahydropyrazolo[3,4-d]azepin-2(4H)-yl)phenyl]-1,3-oxazolidin-2-one]
< 1 | c1cc(-n2cc3c(n2)CCN(C2CCC2)CC3)ccc1N1CCOCC1 [Example E39, 6-Cyclobutyl-2-[4-(4-morpholinyl)phenyl]-2,4,5,6,7,8-hexahydropyrazolo[3,4-d]azepine]
< 1 | CC(C)CN1CCc2cn(-c3ccc(N4CCOC4=O)cc3)nc2CC1 [Example E42]
< 1 | Cc1ccc(N2CCC(n3cc4c(n3)CCN(C3CCC3)CC4)CC2)cn1 [Example E44, 6-Cyclobutyl-2-[1-(6-methyl-3-pyridinyl)-4-piperidinyl]-2,4,5,6,7,8-hexahydropyrazolo[3,4-d]azepine]
